Assay results published in patent US8497092B2, “Method of bioassaying yokukansan” (Tsumura & Co., priority 2008, dated 2013).

Experiments:
[1] = tested on: PC12 cells; conditions: Non-Patent Documents 1 to 3; cited from earlier work
[2] = tested on: PC12 cells; test: Induction of cell death by glutamate in PC12 cells (MTT assay); assay type: cell-based, rat; conditions: regardless of whether NGF stimulation is present
Protocol: By using PC12 cells obtained in Example 1, a culture condition to efficiently induce cell death by glutamate was studied as follows.
From the above studies, the best culture condition for inducing cell death by glutamate was determined as follows: the cells are seeded on a plate coated with collagen, and a medium supplemented with dialyzed serum and without phenol red is used as an induction medium. The induction medium contains an antibiotic-containing medium obtained by adding 5 mL of a penicillin-streptomycin solution to 500 mL of RPMI 1640 medium (GIBCO 11835-030), 5% dialyzed fetal bovine serum (GIBCO 26400-044), and 10% dialyzed horse serum (Biowest S090D). […]
After 24 hours from the above induction of cell death, 0.5% MTT solution (Dojindo 345-01821) was added in an amount of 20 μL per 100 μL of the medium in the above 96-well plate and cultured for 5 hours. […] The crystals of formazan were dissolved using a pipette, and after leaving the solution overnight, the absorbance at a wavelength of 570 nm was measured with a reference wavelength of 690 nm using a spectrometer (Multiskan MCC/340, manufactured by Titertek, Inc.). Thereafter, the cell viability was calculated from the following calculation formula on the basis of the obtained absorbance. […]

| Compound | inhibition of cell death caused by glutamate [1] | cell death caused by glutamate [2] |
| --- | --- | --- |
| (−)-epigallocatechin gallate | cell death is inhibited |  |
| N[C@@H](CCC(=O)O)C(=O)O [glutamate] |  | concentration-dependent manner |
